Results reported in patent publication US5545672A, “Treatment of insulin resistance and type 2 diabetes mellitus with a thiol protease inhibitor” (The University of Texas System, priority 1994, dated 1996).
Entries after “also recorded” stand apart in the source; their conditions may differ. Where two headings read alike, the source gives them in different places.

Legend:
[1] = test system: insulin receptor β subunit; experiment: Insulin-induced proteolysis of insulin receptor β subunit, quantitative immunoblot of membranes and cytosol; assay type: cell-based; settings: 3T3-C2 fibroblasts, 4 h; for β' FRAGMENT % IN CYTOSOL: normalized to maximum β' after eight hours of insulin
Procedure: Cell monolayers were scraped into 10 mM triethanolamine, 10 mM acetic acid, 1 mM EDTA, pH 7.4. The cells were disrupted in a Dounce homogenizer and subjected to centrifugation at 265,000×g, 70 min. at 4° C. The pellet was retained as cellular membranes and the supernatant was collected as the cytosolic fraction.
The cellular membranes were detergent-extracted and the extracts were subjected to SDS polyacrylamide gel electrophoresis on a 7.5% gel to resolve the intact β subunit (approximate mass 92 kDa).
Transfer of the cellular proteins from the 7.5% acrylamide gel to nitrocellulose was conducted at 18 V for 18 h, and the intact β subunit and β' fragment were detected as previously described (Knutson and Buck, Arch. Biochem. Biophys., 285:197-204, 1991). Briefly, following transfer, the nitrocellulose was blocked by incubation for 1 h with blot buffer (50 mM Tris, 0.2M NaCl, pH 8) containing 4% non-fat dry milk. Following blocking, the nitrocellulose was incubated with an anti-peptide antibody which specifically recognizes the carboxy-terminal 16 amino acid residues of the insulin receptor β subunit. This domain is contained in both the intact β subunit and the β' fragment. This antibody has been fully characterized and affinity purified (Knutson and Buck, ibid.). The antibody concentration was 5 μg/ml in blot buffer containing 1% non-fat dry milk, and the incubation was allowed to proceed for 2 h at room temperature. The unbound antibody was then removed from the nitrocellulose by 3 washes with blot buffer containing 1% non-fat dry milk and 0.05% Tween-20. The nitrocellulose was then incubated with ^125 I-protein A, 0.1 μCi/ml, with the blot buffer containing 1% non-fat dry milk, for 1 h at room temperature. Following a final 5 washes of the nitrocellulose with blot buffer-1% dry milk-0.05% Tween-20, the nitrocellulose was exposed to X-ray film. Autoradiographic intensities were quantitated by densitometric scanning.
Cytosolic β' fragment (approximate mass 61 kDa) was isolated by subjecting the […] to high speed centrifugation, removing the supernatant, subjecting the supernatant to SDS polyacrylamide gel electrophoresis on a 7.5% gel, transferring the cytosolic proteins to nitrocellulose, and detecting the cytosolic β' fragment by quantitative immunoblot (Western blot) analysis as described above. The β' fragment data was normalized to the maximum level of β' fragment detected after eight hours of insulin treatment. The above-described procedure is as described in Knutson, V. P., J. Biol. Chem., 266:15656-15662 (1991).

3T3-L1 adipocytes = experiment: Insulin resistance in adipocytes: 14C-glucose incorporation into cellular lipid (lipogenesis); assay type: cell-based; settings: for insulin resistance (insulin stimulation of lipogenesis after preincubation): 3T3-L1 adipocytes, 9 h preincubation with insulin 1.7 μM alone or with E-64 100 μM; for cpm INCORPORATED: 9 h pretreatment (insulin 1.7 μM alone, or insulin 1.7 μM + E-64 100 μM); for FOLD STIMULATION: pretreatment as above
Procedure: Intact monolayers of 3T3-L1 adipocytes were preincubated in the absence of insulin (control) or for nine hours in the presence of 1.7 μM insulin to induce cellular insulin resistance. […] Following preincubation, the treated monolayers were extensively washed to remove any insulin present from the preincubation period. The monolayers were then incubated with insulin, 0, 0.05, or 10 nM for 30 minutes, followed by the addition of 14C-glucose at a final concentration of 25 mM. Incorporation of the radiolabeled glucose proceeded for 30 minutes, after which the cells were washed, lysed, and the cellular lipids extracted into chloroform:methanol (2:1). The amount of radiolabel incorporated into the cellular lipid was then quantified by liquid scintillation counting, and the results are shown in Table 2. This assay procedure is described in Tarlow et al., J. Cell Biol., 73:332-353, 1977.

Zucker fatty rats = settings: for SERUM TG: Zucker fatty rats
Source text: (§1) The injection protocol was initiated when the rats were 14 weeks old, a time when their insulin resistant state was fully manifest. Blood was drawn from the animals at intervals before the beginning of the injection schedule, and at at least one week intervals after initiating the injections. On the first day of the protocol, the fatty rats weighed an average of 416 grams.

lean Zucker rats = settings: 2.5 mg/kg I.P. every 24 h, data not shown
Source text: as §1

[2] = test system: insulin receptor β subunit; settings: cultured cells chronically treated with high insulin; Knutson, J. Biol. Chem. 266, 1991; cited from earlier work
[3] = agent alone (insulin 1.7 μM; leupeptin 10 μg/ml; E-64 100 μM), control 100 ± 13

β SUBUNIT % IN MEMBRANES [1, 3] [%] | β' FRAGMENT % IN CYTOSOL ([1]; agent alone, control 8 ± 5) | Molecule | β' FRAGMENT % IN CYTOSOL ([1]; inhibitor + insulin 1.7 μM) | insulin resistance (insulin stimulation of lipogenesis after preincubation) (3T3-L1 adipocytes) | cpm INCORPORATED (3T3-L1 adipocytes; then insulin 0 nM) [cpm] | cpm INCORPORATED (3T3-L1 adipocytes; then insulin 0.05 nM) [cpm] | cpm INCORPORATED (3T3-L1 adipocytes; then insulin 10 nM) [cpm] | FOLD STIMULATION (3T3-L1 adipocytes; insulin 0 nM (baseline)) [fold] | FOLD STIMULATION (3T3-L1 adipocytes; insulin 0.05 nM) [fold] | FOLD STIMULATION (3T3-L1 adipocytes; insulin 10 nM) [fold] | further results
143 ± 7 | Trace | CC(C)C[C@H](NC(=O)[C@H]1O[C@@H]1C(=O)O)C(=O)NCCCCN=C(N)N [E-64, L-transepoxysuccinyl-leucylamido (4-guanidino) butane] | Not detectable; also recorded: non-detectable | ameliorated | 600 | 1100 | 3100 | 1 | 1.8 | 5.2 | effect on the increase in triglyceride levels found in control Zucker fatty rats (Zucker fatty rats; 2.5 mg/kg I.P. every 24 h): prevented the increase; effect on insulin resistant state in Zucker fatty rats (Zucker fatty rats; 2.5 mg/kg I.P. every 24 h, 90 days): reduced but did not reverse; SERUM TG (Zucker fatty rats; 2.5 mg/kg I.P. every 24 h, day 28, n = 3): 798 ± 269 mg/dL; SERUM TG (Zucker fatty rats; 2.5 mg/kg I.P. every 24 h, day 56, n = 3): 1045 ± 443 mg/dL; SERUM TG (Zucker fatty rats; 2.5 mg/kg I.P. every 24 h, day 89, n = 3): 1093 ± 301 mg/dL; SERUM TG (Zucker fatty rats; day -4 of protocol (before injections), n = 3): 1009 ± 157 mg/dL; effect on triglyceride levels in lean rats (lean Zucker rats): no effect; production of the insulin receptor fragment β' [2]: inhibited
80 ± 7 | 62 ± 6% | insulin | – | no subsequent stimulation of lipogenesis | 1600 | 1900 | 1800 | 1 | 1.2 | 1.1 | β SUBUNIT % IN MEMBRANES ([1]; agent alone (insulin 1.7 μM; leupeptin 10 μg/ml; E-64 100 μM), control 100 ± 13, listed as insulin): decreased; β' FRAGMENT % IN CYTOSOL ([1]; agent alone, control 8 ± 5, listed as insulin): increased

Molecule | β SUBUNIT % IN MEMBRANES [1, 3] [%] | β' FRAGMENT % IN CYTOSOL ([1]; agent alone, control 8 ± 5) | β' FRAGMENT % IN CYTOSOL ([1]; inhibitor + insulin 1.7 μM) | insulin resistance (insulin stimulation of lipogenesis after preincubation) (3T3-L1 adipocytes) | cpm INCORPORATED (3T3-L1 adipocytes; then insulin 0 nM) [cpm] | cpm INCORPORATED (3T3-L1 adipocytes; then insulin 0.05 nM) [cpm] | cpm INCORPORATED (3T3-L1 adipocytes; then insulin 10 nM) [cpm] | FOLD STIMULATION (3T3-L1 adipocytes; insulin 0 nM (baseline)) [fold] | FOLD STIMULATION (3T3-L1 adipocytes; insulin 0.05 nM) [fold] | FOLD STIMULATION (3T3-L1 adipocytes; insulin 10 nM) [fold] | further results
CC(=O)N[C@@H](CC(C)C)C(=O)N[C@@H](CC(C)C)C(=O)N[C@H](C=O)CCCNC(=N)N [Leupeptin, leupeptin] | 97 ± 7 | Trace | Not detectable | – | – | – | – | – | – | – | β SUBUNIT % IN MEMBRANES ([1]; inhibitor + insulin 1.7 μM (leupeptin 10 μg/ml; E-64 100 μM)): 120 ± 17%; β SUBUNIT % IN MEMBRANES ([1]; inhibitor + insulin 1.7 μM (leupeptin 10 μg/ml; E-64 100 μM), listed as leupeptin): prevented insulin-induced loss; β' FRAGMENT % IN CYTOSOL ([1]; inhibitor + insulin 1.7 μM, listed as leupeptin): prevented generation
